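Following 48 hours of exposure in 96-well plates, responses at five concentrations were used to interpolate endpoints linearly. The concentration for 50% growth inhibition is given as GI50.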 The source made the active and inactive calls. Rule as the data show it: active = GI50 up to about 1.1 µM and inactive = higher.
Columns and labels:
Assay in all cases: NCI tumour cell line growth inhibition, 48 h
A498 = system: A498
CCRF-CEM = system: CCRF-CEM
DU-145 = system: DU-145
HOP-92 = system: HOP-92
K562 = system: K562
KM12 = system: KM12
MDA-MB-231 = system: MDA-MB-231
MDA-MB-435 = system: MDA-MB-435
MDA-N = system: MDA-N
MOLT-4 = system: MOLT-4
NCI-H23 = system: NCI-H23
OVCAR-3 = system: OVCAR-3
OVCAR-4 = system: OVCAR-4
PC-3 = system: PC-3
SF-268 = system: SF-268
SF-295 = system: SF-295
SNB-19 = system: SNB-19
SW-620 = system: SW-620
UACC-62 = system: UACC-62
BT-549 = system: BT-549

Measured: GI50

O=C(C=P(c1ccccc1)(c1ccccc1)c1ccccc1)c1ccc(-c2ccc(F)cc2F)cc1
inactive: A498 2.64 µM | CCRF-CEM 2.61 µM | DU-145 3.1 µM | HOP-92 2.19 µM | K562 2.18 µM | KM12 3.42 µM | MDA-MB-231 2.1 µM | MDA-MB-435 2.28 µM | MDA-N 2.78 µM | MOLT-4 1.83 µM | NCI-H23 3.22 µM | OVCAR-3 1.95 µM | OVCAR-4 2.9 µM | PC-3 3.38 µM | SF-268 4.03 µM | SF-295 3.15 µM | SNB-19 4.73 µM | SW-620 3.58 µM | UACC-62 1.85 µM

Cn1nc(S(N)(=O)=O)s/c1=N/S(=O)(=O)c1ccc(N)cc1
inactive: A498 > 100 µM | BT-549 > 100 µM | DU-145 > 100 µM | HOP-92 > 100 µM | KM12 > 100 µM | MDA-MB-231 > 100 µM | MOLT-4 > 100 µM | NCI-H23 > 100 µM | OVCAR-3 > 100 µM | OVCAR-4 > 100 µM | PC-3 > 100 µM | SF-268 > 100 µM | SF-295 > 100 µM | SNB-19 > 100 µM | SW-620 > 100 µM | UACC-62 > 100 µM

Clc1cc(OCc2nn3c(Cc4ccccc4)nnc3s2)ccc1OCc1nn2c(Cc3ccccc3)nnc2s1
inactive: A498 29.1 µM | BT-549 25.8 µM | DU-145 29.6 µM | HOP-92 17.3 µM | K562 95.9 µM | KM12 79.8 µM | MDA-MB-231 18.5 µM | MDA-MB-435 51.6 µM | MOLT-4 34.4 µM | NCI-H23 38.9 µM | OVCAR-3 29.9 µM | OVCAR-4 19.4 µM | PC-3 48.4 µM | SF-268 29.8 µM | SF-295 19.5 µM | SNB-19 24.6 µM | SW-620 79.8 µM | UACC-62 40.6 µM

O=C(O)C1C2CCC(C2)C1c1ccccc1 (stereo not given)
inactive: A498 > 100 µM | CCRF-CEM > 100 µM | DU-145 > 100 µM | HOP-92 > 100 µM | K562 > 100 µM | KM12 > 100 µM | MDA-MB-231 > 100 µM | MDA-MB-435 > 100 µM | MDA-N > 100 µM | MOLT-4 > 100 µM | NCI-H23 > 100 µM | OVCAR-3 > 100 µM | PC-3 > 100 µM | SF-268 > 100 µM | SF-295 > 100 µM | SNB-19 > 100 µM | SW-620 > 100 µM | UACC-62 > 100 µM

CCCCCCCCCCCCCCCCOP(=O)([O-])OCC[N+](C)(C)C1CC(C)(C)N(O)C(C)(C)C1
inactive: A498 > 100 µM | BT-549 > 100 µM | DU-145 > 100 µM | HOP-92 > 100 µM | KM12 > 100 µM | MDA-MB-231 > 100 µM | MDA-MB-435 > 100 µM | NCI-H23 > 100 µM | OVCAR-3 > 100 µM | OVCAR-4 > 100 µM | PC-3 > 100 µM | SF-268 > 100 µM | SF-295 > 100 µM | SNB-19 > 100 µM | SW-620 > 100 µM | UACC-62 > 100 µM

CCC(O)c1ccc(/N=C/c2ccccc2O)cc1 (stereo not given)
inactive: A498 > 100 µM | BT-549 > 100 µM | DU-145 > 100 µM | HOP-92 > 100 µM | K562 > 100 µM | KM12 > 100 µM | MDA-MB-231 > 100 µM | MDA-MB-435 > 100 µM | MOLT-4 > 100 µM | NCI-H23 > 100 µM | OVCAR-3 > 100 µM | OVCAR-4 > 100 µM | PC-3 > 100 µM | SF-268 > 100 µM | SF-295 > 100 µM | SNB-19 > 100 µM | SW-620 > 100 µM | UACC-62 > 100 µM

COc1ccc(-c2c(-c3ccc(OC)cc3)n3c(=O)n(C)c(=O)n23)cc1
inactive: A498 19.4 µM | CCRF-CEM 59.4 µM | DU-145 15.6 µM | HOP-92 18.8 µM | K562 > 100 µM | KM12 > 100 µM | MDA-MB-231 > 100 µM | MDA-MB-435 > 100 µM | MDA-N > 10 µM | MOLT-4 > 100 µM | NCI-H23 > 100 µM | OVCAR-3 18.2 µM | OVCAR-4 23.3 µM | PC-3 27.4 µM | SF-295 > 100 µM | SNB-19 17.1 µM | SW-620 > 100 µM | UACC-62 30.5 µM

COc1ccc(CCN2CCOCC2)cc1
inactive: A498 > 100 µM | CCRF-CEM > 100 µM | DU-145 > 100 µM | HOP-92 > 100 µM | K562 > 100 µM | KM12 > 100 µM | MDA-MB-231 > 100 µM | MDA-MB-435 > 100 µM | MDA-N > 100 µM | MOLT-4 > 100 µM | NCI-H23 > 100 µM | OVCAR-3 41.8 µM | PC-3 > 100 µM | SF-268 > 100 µM | SF-295 > 100 µM | SNB-19 > 100 µM | SW-620 > 100 µM | UACC-62 > 100 µM

CCCCN/N=N/c1cn(C2OC(CO)C(O)C2O)c(=O)[nH]c1=O (stereo not given)
inactive: A498 > 100 µM | CCRF-CEM > 100 µM | DU-145 > 100 µM | KM12 > 100 µM | MDA-MB-231 > 100 µM | MDA-MB-435 > 100 µM | MDA-N > 100 µM | MOLT-4 > 100 µM | NCI-H23 > 100 µM | OVCAR-3 > 100 µM | OVCAR-4 > 100 µM | PC-3 > 100 µM | SF-268 > 100 µM | SF-295 > 100 µM | SNB-19 > 100 µM | SW-620 > 100 µM | UACC-62 > 100 µM

COC(=O)C1C(O)CC(c2ccccn2)N(Cc2ccccc2)C1c1ccccn1 (stereo not given)
inactive: A498 > 100 µM | CCRF-CEM > 100 µM | HOP-92 > 100 µM | K562 44.4 µM | KM12 > 100 µM | MOLT-4 37.6 µM | NCI-H23 > 100 µM | OVCAR-3 > 100 µM | OVCAR-4 > 100 µM | SF-268 > 100 µM | SF-295 > 100 µM | SNB-19 > 100 µM | SW-620 > 100 µM | UACC-62 > 100 µM

COC(=O)C1=C(c2cc(OC)c(OC)c(OC)c2)OC(c2cc(OC)c(OC)c(OC)c2)C1COC(C)=O (stereo not given)
inactive: A498 51.5 µM | CCRF-CEM 41.8 µM | HOP-92 10.3 µM | K562 24 µM | KM12 51.8 µM | MOLT-4 20.8 µM | NCI-H23 33.7 µM | OVCAR-3 33.7 µM | OVCAR-4 29.6 µM | SF-268 > 100 µM | SF-295 45.2 µM | SNB-19 > 100 µM | SW-620 87.5 µM | UACC-62 30.5 µM

CCc1cccc(CC)c1NC(=O)/C(Cl)=C(/Cl)C(=O)O
inactive: A498 > 100 µM | CCRF-CEM 6.44 µM | HOP-92 21.7 µM | K562 11.6 µM | KM12 > 100 µM | MOLT-4 9.25 µM | NCI-H23 38.3 µM | OVCAR-3 32.8 µM | OVCAR-4 17.2 µM | SF-268 40.3 µM | SF-295 > 100 µM | SNB-19 > 100 µM | SW-620 21.2 µM | UACC-62 37.4 µM

Reference: ChEMBL document CHEMBL1201862, “PubChem BioAssay data set” (2004)
